Experimental data taken from patent US12383535B2, “Hydrogen peroxide-responsive KEAP1-NRF2 ppi inhibitor prodrug, and preparation method therefor” (CHINA PHARMACEUTICAL UNIVERSITY, priority 2019, dated 2025).

Test: In vivo pharmacokinetic study
Parameters: species or system SD rats
Details: rat
Experimental: Six male SD rats weighing about 260 g were used, with 3 rats for PO study and the other 3 rats for IV study. The test compound was dissolved in normal saline with a cosolvent to prepare a solution before the study. For the PO study, animals were administered orally (10 mg/kg). […] Blood was sampled at 0.0833, 0.25, 0.5, 1, 2, 4, 6, 8, 24 h in groups IV and PO. The blood samples were preserved on ice and then centrifuged at 2000 rpm and 4° C. for 10 min for separating plasma. The plasma samples were transferred and stored at −80° C. before analysis by LC-MS/MS.

Q: What does the source list for `COc1ccc(S(=O)(=O)Nc2ccc(N(CC(=O)N3CCSC3=O)S(=O)(=O)c3ccc(OC)cc3)c3ccccc23)cc1` [pro2]?
A: AUC0-t (I.V. 2 mg/kg): 1.842 ± 0.363 µg·h/mL; AUC0-∞ (I.V. 2 mg/kg): 1.854 ± 0.366 µg·h/mL; Cl_F (I.V. 2 mg/kg): 1.11 ± 0.234 L/h/kg; MRT (I.V. 2 mg/kg): 1.25 ± 0.30 h; T1/2 (I.V. 2 mg/kg): 4.41 ± 3.01 h; Vz_F (I.V. 2 mg/kg): 6.44 ± 4.09 L/kg; AUC0-t (P.O. 10 mg/kg): 6.203 ± 0.248 µg·h/mL; AUC0-∞ (P.O. 10 mg/kg): 6.315 ± 0.273 µg·h/mL; Cl_F (P.O. 10 mg/kg): 1.58 ± 0.0684 L/h/kg; Cmax (P.O. 10 mg/kg): 2.753 ± 0.0153 µg/mL; MRT (P.O. 10 mg/kg): 1.82 ± 0.35 h; T1/2 (P.O. 10 mg/kg): 2.09 ± 0.93 h; Tmax (P.O. 10 mg/kg): 0.67 ± 0.29 h; Vz_F (P.O. 10 mg/kg): 4.79 ± 2.17 L/kg; bioavailability (oral): 68.1%
